# Active and inactive are the calls of the source. The rule behind the calls is not given here.
# Tested on: MDA-MB-231
# Test: Growth inhibition of human MDA-MB-231 cells at 10 uM after 72 hrs by MTT assay
# Assay type: functional
# Conditions: MDA-MB-231, 72 h
row,SMILES,inhibition at 10 µM
1,N#Cc1nc2ccc3c(nnn3-c3ccncc3)c2s1,87.4%
2,N#Cc1nc2ccc3c(nnn3-c3ccnc4ccccc34)c2s1,32.4%
3,Cc1cc(-n2nnc3c4sc(C#N)nc4ccc32)c2ccccc2n1,91.9%
4,c1cc(-n2nnc3c4sc(C5=NCCN5)nc4ccc32)ccn1,56.4%
5,N#Cc1nc2ccc3c(nnn3-c3ccc4ccccc4n3)c2s1,19.8%
6,Cc1cc(-n2nnc3c4sc(C5=NCCN5)nc4ccc32)c2ccccc2n1,97.4%
7,c1ccc2c(-n3nnc4c5sc(C6=NCCN6)nc5ccc43)ccnc2c1,97.3%
8,c1ccc2nc(-n3nnc4c5sc(C6=NCCN6)nc5ccc43)ccc2c1,28.5%
9,Nc1ccc2[nH]c3c4ccccc4ncc3c2c1,85.7%

# Tested on: HL-60
# Test: Cytotoxicity against human HL60 cells after 72 hrs
# Assay type: functional, cell-based
# Conditions: HL-60, 72 h
row,SMILES,IC50
1,CC(=O)Nc1ccc2c(c1)-c1cccc3nccc(c13)N2,4.6 µM
2,c1ccc2c(c1)ncc1c2[nH]c2ccc3ncsc3c21,17.2 µM

# Tested on: Calf thymus DNA
# Test: Binding affinity to calf thymus DNA assessed as change in melting temperature at [compound]/[polynucleotide] ratio of 1
# Assay type: nucleic-acid assay
# Conditions: Bos taurus
row,SMILES,ΔTm
1,CC(=O)Nc1ccc2c(c1)-c1cccc3nccc(c13)N2,14.5 °C
2,c1ccc2c(c1)ncc1c2[nH]c2ccc3ncsc3c21,7.2 °C

# Tested on: HL-60
# Test: Cytotoxicity against human mitoxantrone-resistant HL60 cells after 72 hrs
# Assay type: functional, cell-based
# Conditions: HL-60, 72 h
row,SMILES,IC50
1,CC(=O)Nc1ccc2c(c1)-c1cccc3nccc(c13)N2,5.5 µM
2,c1ccc2c(c1)ncc1c2[nH]c2ccc3ncsc3c21,22.6 µM

# Tested on: Nucleic Acid
# Test: Binding affinity to poly(dAT)2 assessed as change in melting temperature at [compound]/[polynucleotide] ratio of 1 at pH 7.1
# Assay type: nucleic-acid assay
# Conditions: not given
row,SMILES,ΔTm
1,CC(=O)Nc1ccc2c(c1)-c1cccc3nccc(c13)N2,24.5 °C
2,c1ccc2c(c1)ncc1c2[nH]c2ccc3ncsc3c21,12.7 °C

# Target: DNA topoisomerase 2-alpha (Homo sapiens) (UniProt P11388)
# Sequence (P11388 whole entry): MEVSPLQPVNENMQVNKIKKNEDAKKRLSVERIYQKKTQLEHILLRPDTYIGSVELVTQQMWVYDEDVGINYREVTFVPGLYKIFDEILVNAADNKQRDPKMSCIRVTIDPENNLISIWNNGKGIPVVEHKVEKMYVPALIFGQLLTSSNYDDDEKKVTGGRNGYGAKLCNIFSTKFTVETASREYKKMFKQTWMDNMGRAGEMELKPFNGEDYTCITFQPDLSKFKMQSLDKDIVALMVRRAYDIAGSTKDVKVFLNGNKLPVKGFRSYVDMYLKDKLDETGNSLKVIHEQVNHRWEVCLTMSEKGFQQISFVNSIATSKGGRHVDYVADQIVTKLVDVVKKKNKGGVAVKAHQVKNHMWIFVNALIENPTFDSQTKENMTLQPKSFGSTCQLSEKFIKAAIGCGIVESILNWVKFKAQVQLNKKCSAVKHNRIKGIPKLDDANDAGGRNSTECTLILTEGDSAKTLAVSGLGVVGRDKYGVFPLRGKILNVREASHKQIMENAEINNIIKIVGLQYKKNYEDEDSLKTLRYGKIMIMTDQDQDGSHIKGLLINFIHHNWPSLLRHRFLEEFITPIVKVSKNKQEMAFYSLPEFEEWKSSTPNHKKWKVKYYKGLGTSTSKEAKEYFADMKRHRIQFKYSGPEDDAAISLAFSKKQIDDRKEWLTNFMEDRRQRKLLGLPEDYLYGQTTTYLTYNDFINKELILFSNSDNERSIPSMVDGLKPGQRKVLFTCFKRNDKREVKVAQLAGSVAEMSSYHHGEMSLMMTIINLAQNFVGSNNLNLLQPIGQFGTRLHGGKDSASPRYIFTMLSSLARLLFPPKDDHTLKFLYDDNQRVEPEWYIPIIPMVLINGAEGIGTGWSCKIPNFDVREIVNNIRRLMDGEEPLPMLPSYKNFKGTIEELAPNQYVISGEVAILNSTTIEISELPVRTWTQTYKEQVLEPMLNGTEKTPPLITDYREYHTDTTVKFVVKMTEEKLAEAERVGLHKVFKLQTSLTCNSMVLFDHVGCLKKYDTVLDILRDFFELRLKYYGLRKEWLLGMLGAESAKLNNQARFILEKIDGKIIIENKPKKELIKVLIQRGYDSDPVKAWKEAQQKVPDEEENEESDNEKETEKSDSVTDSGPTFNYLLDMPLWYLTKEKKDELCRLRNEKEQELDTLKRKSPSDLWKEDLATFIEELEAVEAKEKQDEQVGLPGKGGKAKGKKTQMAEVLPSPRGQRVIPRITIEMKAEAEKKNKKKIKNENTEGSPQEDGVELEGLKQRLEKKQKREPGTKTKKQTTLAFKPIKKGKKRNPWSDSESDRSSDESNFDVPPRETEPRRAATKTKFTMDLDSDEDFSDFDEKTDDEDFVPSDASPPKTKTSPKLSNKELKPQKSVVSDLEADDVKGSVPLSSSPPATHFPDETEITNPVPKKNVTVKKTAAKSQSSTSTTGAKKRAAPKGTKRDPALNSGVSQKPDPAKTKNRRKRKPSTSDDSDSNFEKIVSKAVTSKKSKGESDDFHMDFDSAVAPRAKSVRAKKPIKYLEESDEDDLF
# Test: Inhibition of human topoisomerase 2-mediated DNA cleavage
# Conditions: not given
row,SMILES,inhibition
1,CC[C@@]1(O)C(=O)OCc2c1cc1n(c2=O)Cc2cc3ccccc3nc2-1,inactive

# Tested on: MCF7
# Test: Growth inhibition of human MCF7 cells at 10 uM after 72 hrs by MTT assay
# Assay type: functional
# Conditions: MCF7, 72 h
row,SMILES,inhibition at 10 µM
1,N#Cc1nc2ccc3c(nnn3-c3ccncc3)c2s1,95.5%
2,N#Cc1nc2ccc3c(nnn3-c3ccnc4ccccc34)c2s1,34.9%
3,Cc1cc(-n2nnc3c4sc(C#N)nc4ccc32)c2ccccc2n1,87.2%
4,c1cc(-n2nnc3c4sc(C5=NCCN5)nc4ccc32)ccn1,51.1%
5,N#Cc1nc2ccc3c(nnn3-c3ccc4ccccc4n3)c2s1,30.4%
6,Cc1cc(-n2nnc3c4sc(C5=NCCN5)nc4ccc32)c2ccccc2n1,98.9%
7,c1ccc2c(-n3nnc4c5sc(C6=NCCN6)nc5ccc43)ccnc2c1,95.6%
8,c1ccc2nc(-n3nnc4c5sc(C6=NCCN6)nc5ccc43)ccc2c1,41.3%
9,Nc1ccc2[nH]c3c4ccccc4ncc3c2c1,73.5%

# — ChEMBL document CHEMBL1154158, “Synthesis and antitumoral activity of novel thiazolobenzotriazole, thiazoloindolo[3,2-c]quinoline and quinolinoquinoline derivatives” (Eur J Med Chem, 2009)
